Key:
hSERT = hSERT (Homo sapiens, UniProt P31645); assay: fluorescence-based serotonin reuptake inhibition assay (Tsuruda et al. 2010; data indicated by an asterisk); format: cell-based; parameters: expressed in transfected cells; host or cells: HEK-293; conditions: fluorescence-based assay (values with asterisk), read-out: SERT pIC50 (converted)
hNET = hNET (Homo sapiens, UniProt P23975); assay: fluorescence-based norepinephrine reuptake inhibition assay (Tsuruda et al. 2010; data indicated by an asterisk); format: cell-based; parameters: expressed in transfected cells; host or cells: HEK-293; conditions: norepinephrine reuptake inhibition, fluorescence-based assay (values with asterisk); read-out: NET pIC50 (converted)
hNET, sequence (P23975 whole entry): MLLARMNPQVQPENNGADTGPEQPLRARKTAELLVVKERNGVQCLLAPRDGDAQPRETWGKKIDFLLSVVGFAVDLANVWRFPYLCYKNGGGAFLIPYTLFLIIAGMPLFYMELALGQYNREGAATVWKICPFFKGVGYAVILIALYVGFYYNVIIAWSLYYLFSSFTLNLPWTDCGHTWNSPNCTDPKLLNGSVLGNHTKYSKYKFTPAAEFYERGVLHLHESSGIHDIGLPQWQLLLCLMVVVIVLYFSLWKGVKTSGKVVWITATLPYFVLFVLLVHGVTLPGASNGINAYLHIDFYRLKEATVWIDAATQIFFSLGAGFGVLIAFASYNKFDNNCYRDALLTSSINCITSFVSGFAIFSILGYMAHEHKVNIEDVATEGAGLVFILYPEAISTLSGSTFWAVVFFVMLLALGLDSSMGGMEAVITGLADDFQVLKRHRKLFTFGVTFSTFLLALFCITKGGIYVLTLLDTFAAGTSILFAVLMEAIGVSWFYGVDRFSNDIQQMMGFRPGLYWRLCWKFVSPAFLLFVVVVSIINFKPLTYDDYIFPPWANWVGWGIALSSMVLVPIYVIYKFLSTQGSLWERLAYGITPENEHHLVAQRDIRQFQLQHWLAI

hSERT, sequence (P31645 whole entry): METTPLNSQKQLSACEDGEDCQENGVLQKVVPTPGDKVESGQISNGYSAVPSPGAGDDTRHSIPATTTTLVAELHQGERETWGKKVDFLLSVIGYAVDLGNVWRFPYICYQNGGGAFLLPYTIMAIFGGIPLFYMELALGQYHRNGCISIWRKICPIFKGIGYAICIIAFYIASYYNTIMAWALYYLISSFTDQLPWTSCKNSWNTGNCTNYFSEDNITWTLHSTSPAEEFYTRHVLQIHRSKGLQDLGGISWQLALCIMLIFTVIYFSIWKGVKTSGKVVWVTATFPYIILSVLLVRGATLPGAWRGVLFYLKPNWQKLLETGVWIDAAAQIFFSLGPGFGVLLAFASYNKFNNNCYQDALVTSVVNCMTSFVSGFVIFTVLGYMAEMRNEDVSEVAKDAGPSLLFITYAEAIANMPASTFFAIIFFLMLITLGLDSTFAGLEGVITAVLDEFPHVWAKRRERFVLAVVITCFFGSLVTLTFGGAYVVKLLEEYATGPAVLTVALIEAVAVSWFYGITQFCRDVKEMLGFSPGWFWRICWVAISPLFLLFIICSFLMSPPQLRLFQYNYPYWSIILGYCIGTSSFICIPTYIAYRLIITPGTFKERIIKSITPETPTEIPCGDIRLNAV

Compound	IC50 (hSERT) [nM]	IC50 (hNET) [nM]
CC[C@H](Oc1cccc(Cl)c1C)[C@H]1CCNC1 [Example 2-64, (S)-3-[(S)-1-(3-Chloro-2-methylphenoxy)propyl]pyrrolidine]	≤ 10	≤ 10
CC[C@@H](Oc1cccc(Cl)c1C)[C@H]1CCNC1 [Example 2-65, (S)-3-[(R)-1-(3-Chloro-2-methylphenoxy)propyl]pyrrolidine]	≤ 10	≤ 10
CC[C@@H](Oc1cccc(Cl)c1C(F)(F)F)[C@H]1CCNC1 [Example 2-74, (S)-3-[(R)-1-(3-Chloro-2-trifluoromethylphenoxy)propyl]pyrrolidine]	≤ 10	≤ 100
CCC[C@@H](Oc1cc(F)cc(Cl)c1)[C@H]1CCNC1 [Example 4-10, (S)-3-[(R)-1-(3-Chloro-5-fluorophenoxy)butyl]pyrrolidine]	≤ 100	≤ 10
CCC[C@H](Oc1cc(F)cc(Cl)c1)[C@H]1CCNC1 [Example 4-11, (S)-3-[(S)-1-(3-Chloro-5-fluorophenoxy)butyl]pyrrolidine]	≤ 100	≤ 10
CCC[C@@H](Oc1ccc(Cl)c(Cl)c1)[C@@H]1CCNC1 [Example 4-14, (R)-3-[(R)-1-(3,4-Dichlorophenoxy)butyl]pyrrolidine]	≤ 10	≤ 100
CCC[C@@H](Oc1ccc(Cl)c(C)c1)[C@H]1CCNC1 [Example 4-15, (S)-3-[(R)-1-(4-Chloro-3-methylphenoxy)butyl]pyrrolidine]	≤ 10	≤ 100
CCC[C@H](Oc1ccc(Cl)c(C)c1)[C@H]1CCNC1 [Example 4-16, (S)-3-[(S)-1-(4-Chloro-3-methylphenoxy)butyl]pyrrolidine]	≤ 10	≤ 10
CCC[C@@H](Oc1ccc(Cl)c(F)c1)[C@H]1CCNC1 [Example 4-17, (S)-3-[(R)-1-(4-Chloro-3-fluorophenoxy)butyl]pyrrolidine]	≤ 10	≤ 100
CCC[C@@H](Oc1c(Cl)ccc(Cl)c1Cl)[C@H]1CCNC1 [Example 4-26, (S)-3-[(R)-1-(2,3,6-Trichlorophenoxy)butyl]pyrrolidine]	≤ 10	≤ 10
CCC[C@H](Oc1ccc(Cl)c(F)c1Cl)[C@H]1CCNC1 [Example 4-39, (S)-3-[(S)-1-(2,4-Dichloro-3-fluorophenoxy)butyl]pyrrolidine]	≤ 10	≤ 10
CCC[C@H](Oc1c(F)cc(Cl)cc1Cl)[C@H]1CCNC1 [Example 4-40, (S)-3-[(S)-1-(2,4-Dichloro-6-fluorophenoxy)butyl]pyrrolidine]	≤ 10	≤ 10
CCC[C@H](Oc1c(C)cc(Cl)cc1Cl)[C@H]1CCNC1 [Example 4-41, (S)-3-[(S)-1-(2,4-Dichloro-6-methylphenoxy)butyl]pyrrolidine]	≤ 10	≤ 10
CCC[C@@H](Oc1c(F)ccc(OC)c1Cl)[C@H]1CCNC1 [Example 4-42, (S)-3-[(R)-1-(2-Chloro-6-fluoro-3-methoxyphenoxy)butyl]pyrrolidine]	≤ 10	≤ 10
CCC[C@@H](Oc1cccc(F)c1F)[C@H]1CCNC1 [Example 4-44, (S)-3-[(R)-1-(2,3-Difluorophenoxy)butyl]pyrrolidine]	≤ 100	≤ 10
CCC[C@H](Oc1cccc(F)c1F)[C@H]1CCNC1 [Example 4-45, (S)-3-[(S)-1-(2,3-Difluorophenoxy)butyl]pyrrolidine]	≤ 100	≤ 10
CCC[C@@H](Oc1cccc(Cl)c1F)[C@H]1CCNC1 [Example 4-46, (S)-3-[(R)-1-(3-Chloro-2-fluorophenoxy)butyl]pyrrolidine]	≤ 100	≤ 10
CCC[C@@H](Oc1cccc(Cl)c1F)[C@@H]1CCNC1 [Example 4-47, (R)-3-[(R)-1-(3-Chloro-2-fluorophenoxy)butyl]pyrrolidine]	≤ 100	≤ 10
CCC[C@H](Oc1cccc(Cl)c1F)[C@H]1CCNC1 [Example 4-48, (S)-3-[(S)-1-(3-Chloro-2-fluorophenoxy)butyl]pyrrolidine]	≤ 100	≤ 10
CCC[C@@H](Oc1ccc(F)c(F)c1F)[C@H]1CCNC1 [Example 4-49, (S)-3-[(R)-1-(2,3,4-Trifluorophenoxy)butyl]pyrrolidine]	≤ 10	≤ 100
CCC[C@@H](Oc1ccc(Cl)c(Cl)c1F)[C@H]1CCNC1 [Example 4-51, (S)-3-[(R)-1-(3,4-Dichloro-2-fluorophenoxy)butyl]pyrrolidine]	≤ 10	≤ 10
CCC[C@H](Oc1ccc(Cl)c(Cl)c1F)[C@H]1CCNC1 [Example 4-52, (S)-3-[(S)-1-(3,4-Dichloro-2-fluorophenoxy)butyl]pyrrolidine]	≤ 10	≤ 10

Compound	IC50 (hSERT) [nM]	IC50 (hNET) [nM]
CCC[C@H](Oc1c(F)cc(Cl)cc1F)[C@H]1CCNC1 [Example 4-53, (S)-3-[(S)-1-(4-Chloro-2,6-difluorophenoxy)butyl]pyrrolidine]	≤ 10	≤ 10
CCC[C@@H](Oc1ccc(Cl)cc1C)[C@@H]1CCNC1 [Example 4-61, (R)-3-[(R)-1-(4-Chloro-2-methylphenoxy)butyl]pyrrolidine]	≤ 100	≤ 100
CCC[C@H](Oc1cccc(C)c1C)[C@H]1CCNC1 [Example 4-62, (S)-3-[(S)-1-(2,3-Dimethylphenoxy)butyl]pyrrolidine]	≤ 10	≤ 10
CCC[C@H](Oc1ccc(Cl)cc1OC)[C@H]1CCNC1 [Example 4-72, (S)-3-[(S)-1-(4-Chloro-2-methoxyphenoxy)butyl]pyrrolidine]	≤ 10	≤ 10
CC(C)[C@H](Oc1cccc(Cl)c1F)[C@H]1CCNC1 [Example 6-3, (S)-3-[(S)-1-(3-Chloro-2-fluorophenoxy)-2-methylpropyl]pyrrolidine]	≤ 100	≤ 10
CC(C)[C@@H](Oc1cccc(Cl)c1F)[C@H]1CCNC1 [Example 6-4, (S)-3-[(R)-1-(3-Chloro-2-fluorophenoxy)-2-methylpropyl]pyrrolidine]	≤ 10	≤ 10
CC(C)[C@H](Oc1c(F)cc(Cl)cc1F)[C@H]1CCNC1 [Example 6-5, (S)-3-[(S)-1-(4-Chloro-2,6-difluorophenoxy)-2-methylpropyl]pyrrolidine]	≤ 10	≤ 10
CC(C)[C@@H](Oc1c(F)cc(Cl)cc1F)[C@@H]1CCNC1 [Example 6-6, (R)-3-[(R)-1-(4-Chloro-2,6-difluorophenoxy)-2-methylpropyl]pyrrolidine]	≤ 100	≤ 100
CC(C)[C@@H](Oc1ccc(Cl)c(Cl)c1F)[C@H]1CCNC1 [Example 6-8, (S)-3-[(R)-1-(3,4-Dichloro-2-fluorophenoxy)-2-methylpropyl]pyrrolidine]	≤ 10	≤ 100
CC(C)[C@@H](Oc1ccc(Cl)c(Cl)c1F)[C@@H]1CCNC1 [Example 6-9, (R)-3-[(R)-1-(3,4-Dichloro-2-fluorophenoxy)-2-methylpropyl]pyrrolidine]	≤ 10	≤ 100
CC(C)[C@H](Oc1cccc(Cl)c1Cl)[C@@H]1CCNC1 [Example 6-16, (R)-3-[(S)-1-(2,3-Dichlorophenoxy)-2-methylpropyl]pyrrolidine]	≤ 100	≤ 100
CC(C)[C@H](Oc1cccc(F)c1Cl)[C@@H]1CCNC1 [Example 6-20, (R)-3-[(S)-1-(2-Chloro-3-fluorophenoxy)-2-methylpropyl]pyrrolidine]	≤ 100	≤ 100
CC(C)[C@@H](Oc1ccc(Cl)cc1Cl)[C@@H]1CCNC1 [Example 6-23, (R)-3-[(R)-1-(2,4-Dichlorophenoxy)-2-methylpropyl]pyrrolidine]	≤ 10	≤ 100
CC(C)[C@H](Oc1ccc(C(F)(F)F)cc1Cl)[C@H]1CCNC1 [Example 6-25, (S)-3-[(S)-1-(2-Chloro-4-trifluoromethylphenoxy)-2-methylpropyl]pyrrolidine]	≤ 10	≤ 100
CC(C)[C@@H](Oc1cc(Cl)ccc1Cl)[C@H]1CCNC1 [Example 6-26, (S)-3-[(R)-1-(2,5-Dichlorophenoxy)-2-methylpropyl]pyrrolidine]	≤ 100	≤ 100
CC(C)[C@@H](Oc1c(F)cc(Cl)cc1Cl)[C@H]1CCNC1 [Example 6-31, (S)-3-[(R)-1-(2,4-Dichloro-6-fluorophenoxy)-2-methylpropyl]pyrrolidine]	≤ 10	≤ 100
CC(C)[C@H](Oc1c(F)cc(Cl)cc1Cl)[C@@H]1CCNC1 [Example 6-32, (R)-3-[(S)-1-(2,4-Dichloro-6-fluorophenoxy)-2-methylpropyl]pyrrolidine]	≤ 100	≤ 316
Cc1cc(Cl)cc(Cl)c1O[C@@H](C(C)C)[C@H]1CCNC1 [Example 6-33, (S)-3-[(S)-1-(2,4-Dichloro-6-methylphenoxy)-2-methylpropyl]pyrrolidine]	≤ 10	≤ 10
COc1ccc(F)c(O[C@H](C(C)C)[C@@H]2CCNC2)c1Cl [Example 6-37, (R)-3-[(R)-1-(2-Chloro-6-fluoro-3-methoxyphenoxy)-2-methylpropyl]pyrrolidine]	≤ 10	≤ 10
Cc1c(Cl)cccc1O[C@H](C(C)C)[C@@H]1CCNC1 [Example 6-41, (R)-3-[(R)-1-(3-Chloro-2-methylphenoxy)-2-methylpropyl]pyrrolidine]	≤ 10	≤ 100
Cc1c(Cl)cccc1O[C@@H](C(C)C)[C@@H]1CCNC1 [Example 6-42, (R)-3-[(S)-1-(3-Chloro-2-methylphenoxy)-2-methylpropyl]pyrrolidine]	≤ 10	≤ 100
Cc1cc(Cl)ccc1O[C@H](C(C)C)[C@@H]1CCNC1 [Example 6-46, (R)-3-[(R)-1-(4-Chloro-2-methylphenoxy)-2-methylpropyl]pyrrolidine]	≤ 100	≤ 100
